How the values were obtained:
Assay type in all cases: cell-based; call rule not given here
[1] = molecular target: T1, 5-hydroxytryptamine receptor 2A (Homo sapiens, UniProt P28223); assay: Modulation of human 5HT2A expressed in HEK293T cells co-transfected with Galphaq-RLuc8, Ggamma1-GFP2 and Gbeta1 assessed as dissociation of Galphaq from Ggamma1 preincubated for 1 hr followed by addition of coelenterazine 400a substrate and measured after 15 mins by BRET assay
[2] = molecular target: T2, 5-hydroxytryptamine receptor 2B (Homo sapiens, UniProt P41595); assay: Modulation of human 5HT2B expressed in HEK293T cells co-transfected with Galphaq-RLuc8, Ggamma1-GFP2 and Gbeta1 assessed as dissociation of Galphaq from Ggamma1 preincubated for 1 hr followed by addition of coelenterazine 400a substrate and measured after 15 mins by BRET assay
T2 sequence (P41595 whole entry): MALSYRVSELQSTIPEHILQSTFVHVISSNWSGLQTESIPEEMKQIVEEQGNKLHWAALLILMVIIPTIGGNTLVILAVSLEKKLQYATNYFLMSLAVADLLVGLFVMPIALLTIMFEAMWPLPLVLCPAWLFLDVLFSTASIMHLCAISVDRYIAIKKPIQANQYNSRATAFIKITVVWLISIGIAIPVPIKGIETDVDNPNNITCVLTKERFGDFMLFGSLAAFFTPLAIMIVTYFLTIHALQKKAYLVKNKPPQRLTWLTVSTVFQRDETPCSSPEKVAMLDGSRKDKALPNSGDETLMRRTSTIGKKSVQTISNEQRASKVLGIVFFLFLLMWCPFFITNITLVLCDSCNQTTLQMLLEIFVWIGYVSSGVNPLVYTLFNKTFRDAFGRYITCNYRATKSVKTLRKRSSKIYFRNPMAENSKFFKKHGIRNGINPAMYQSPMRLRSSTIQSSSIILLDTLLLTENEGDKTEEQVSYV

[3] = molecular target: T3, 5-hydroxytryptamine receptor 2C (Homo sapiens, UniProt P28335); assay: Modulation of human 5HT2C expressed in HEK293T cells co-transfected with Galphaq-RLuc8, Ggamma1-GFP2 and Gbeta1 assessed as dissociation of Galphaq from Ggamma1 preincubated for 1 hr followed by addition of coelenterazine 400a substrate and measured after 15 mins by BRET assay
T3 sequence (P28335 whole entry): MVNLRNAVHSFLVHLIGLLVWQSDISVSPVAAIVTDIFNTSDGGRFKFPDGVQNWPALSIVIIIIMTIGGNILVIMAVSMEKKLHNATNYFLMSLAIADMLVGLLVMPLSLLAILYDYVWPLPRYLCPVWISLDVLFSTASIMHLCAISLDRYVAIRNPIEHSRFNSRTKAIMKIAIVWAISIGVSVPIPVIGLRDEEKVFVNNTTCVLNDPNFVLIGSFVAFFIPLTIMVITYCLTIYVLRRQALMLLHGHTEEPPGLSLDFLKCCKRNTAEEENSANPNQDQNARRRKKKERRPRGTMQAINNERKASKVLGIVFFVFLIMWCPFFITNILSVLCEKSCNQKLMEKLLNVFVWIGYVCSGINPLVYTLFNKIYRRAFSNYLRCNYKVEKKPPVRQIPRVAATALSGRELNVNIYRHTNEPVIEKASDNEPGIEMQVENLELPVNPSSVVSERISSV

[4] = molecular target: T1, 5-hydroxytryptamine receptor 2A; assay: Modulation of human 5HT2A expressed in HEK293T cells co-transfected with Galphaq-RLuc8, Ggamma1-GFP2 and Gbeta1 assessed as dissociation of Galphaq from Ggamma1 preincubated for 1 hr followed by addition of coelenterazine 400a substrate and measured after 15 mins by BRET assay relative to 5-HT; conditions: filed as modulator, time 75.0 min
[5] = molecular target: T2, 5-hydroxytryptamine receptor 2B; assay: Modulation of human 5HT2B expressed in HEK293T cells co-transfected with Galphaq-RLuc8, Ggamma1-GFP2 and Gbeta1 assessed as dissociation of Galphaq from Ggamma1 preincubated for 1 hr followed by addition of coelenterazine 400a substrate and measured after 15 mins by BRET assay relative to 5-HT; conditions: time 75.0 min

T1 sequence (P28223 whole entry): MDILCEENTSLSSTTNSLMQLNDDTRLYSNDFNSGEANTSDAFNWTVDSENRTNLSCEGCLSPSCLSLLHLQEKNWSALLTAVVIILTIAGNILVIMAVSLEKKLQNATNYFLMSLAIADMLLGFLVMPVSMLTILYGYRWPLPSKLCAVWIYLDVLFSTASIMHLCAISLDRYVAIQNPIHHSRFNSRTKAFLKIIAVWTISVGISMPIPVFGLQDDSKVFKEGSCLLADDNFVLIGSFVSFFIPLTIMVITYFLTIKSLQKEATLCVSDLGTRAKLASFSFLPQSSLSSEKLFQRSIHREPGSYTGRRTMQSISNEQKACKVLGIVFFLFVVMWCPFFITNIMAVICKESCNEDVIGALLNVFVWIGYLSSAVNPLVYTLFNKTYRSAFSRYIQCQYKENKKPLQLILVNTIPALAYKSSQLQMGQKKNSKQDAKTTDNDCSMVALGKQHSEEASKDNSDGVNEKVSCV

Row | Compound | IC50 [1] [nM] | IC50 ([2]; hek293t) | IC50 [3] [nM] | Efficacy [4] [%] | Efficacy ([5]; filed as modulator) [%] | IC50 ([2]; read-out: IC50) [nM] | Efficacy [5] [%]
1 | CN(C)CCc1cn(CCF)c2cccc(O)c12 | 188 | Not Active | 2.7 | 48 |  |  | 
2 | CC(C)N(C)CCc1cn(C)c2cccc(O)c12 |  |  |  | 85 | 83 |  | 
3 | CN(C)CCc1cn(C)c2cccc(O)c12 | 86.3 |  | 9.51 | 73 | 40 | 31.7 | 
4 | CN(CCc1cn(C)c2cccc(O)c12)CC1CC1 |  |  |  | 55 |  |  | 19
5 | CN(C)CCc1c[nH]c2cccc(O)c12 |  |  |  | 82 | 63 |  | 
6 | CCn1cc(CCN(C)C)c2c(O)cccc21 | 196 | Not Active | 0.9 | 65 |  |  | 
7 | CCN(C)CCc1cn(C)c2cccc(O)c12 |  |  |  | 66 | 44 |  | 
8 | CN(C)CCc1cn(CC2CC2)c2cccc(O)c12 |  | Not Active |  | 29 |  |  | 

Source: ChEMBL document CHEMBL5055687, “Improved 5-HT2 Selective Receptor Modulators for the Treatment of Psychological Disorders” (ACS Med Chem Lett, 2021)
